Reference: ChEMBL document CHEMBL4665658, “Quinoline and thiazolopyridine allosteric inhibitors of MALT1” (Bioorg Med Chem Lett, 2019)

Legend:
[1] = system: OCI-Ly3; test: Antiproliferative activity against human OCILY3 cells by cell proliferation assay; type: functional, cell-based
[2] = target: Cathepsin D (Homo sapiens) (UniProt P07339); test: Inhibition of cathepsin D (unknown origin) at 10 uM
[3] = target: Cathepsin E (Homo sapiens) (UniProt P14091); test: Inhibition of cathepsin E (unknown origin) at 10 uM
Chain of Cathepsin E (Homo sapiens) (P14091 whole entry): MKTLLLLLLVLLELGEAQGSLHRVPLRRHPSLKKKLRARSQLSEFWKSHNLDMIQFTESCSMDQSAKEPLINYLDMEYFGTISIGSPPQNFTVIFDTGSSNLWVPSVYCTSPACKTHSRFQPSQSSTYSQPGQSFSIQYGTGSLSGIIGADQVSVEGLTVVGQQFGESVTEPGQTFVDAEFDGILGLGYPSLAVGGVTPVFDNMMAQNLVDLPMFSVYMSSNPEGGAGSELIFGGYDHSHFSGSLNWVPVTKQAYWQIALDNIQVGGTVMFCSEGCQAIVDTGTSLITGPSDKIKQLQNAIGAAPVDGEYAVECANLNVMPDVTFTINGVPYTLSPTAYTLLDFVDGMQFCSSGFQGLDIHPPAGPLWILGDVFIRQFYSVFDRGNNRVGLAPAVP

[4] = target: Prothrombin (Homo sapiens) (UniProt P00734); test: Inhibition of thrombin (unknown origin) at 10 uM
[5] = target: Coagulation factor X (Homo sapiens) (UniProt P00742); test: Inhibition of factor Xa (unknown origin) at 10 uM
Chain of Coagulation factor X (Homo sapiens) (P00742 41-179 limits assumed): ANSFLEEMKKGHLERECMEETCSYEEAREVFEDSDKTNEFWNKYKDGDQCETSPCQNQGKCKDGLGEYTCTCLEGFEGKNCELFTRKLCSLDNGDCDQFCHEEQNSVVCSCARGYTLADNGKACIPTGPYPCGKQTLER
Chain of Coagulation factor X (Homo sapiens) (P00742 235-488 limits assumed): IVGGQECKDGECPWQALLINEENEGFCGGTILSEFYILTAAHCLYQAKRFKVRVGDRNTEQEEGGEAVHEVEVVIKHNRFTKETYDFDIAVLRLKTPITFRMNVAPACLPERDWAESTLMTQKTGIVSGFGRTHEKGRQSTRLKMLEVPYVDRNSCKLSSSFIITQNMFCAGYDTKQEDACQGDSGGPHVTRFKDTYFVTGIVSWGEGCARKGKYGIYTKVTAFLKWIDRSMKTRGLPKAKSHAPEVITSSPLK

[6] = target: Cathepsin G (Homo sapiens) (UniProt P08311); test: Inhibition of cathepsin G (unknown origin) at 10 uM
Chain of Cathepsin G (Homo sapiens) (P08311 whole entry): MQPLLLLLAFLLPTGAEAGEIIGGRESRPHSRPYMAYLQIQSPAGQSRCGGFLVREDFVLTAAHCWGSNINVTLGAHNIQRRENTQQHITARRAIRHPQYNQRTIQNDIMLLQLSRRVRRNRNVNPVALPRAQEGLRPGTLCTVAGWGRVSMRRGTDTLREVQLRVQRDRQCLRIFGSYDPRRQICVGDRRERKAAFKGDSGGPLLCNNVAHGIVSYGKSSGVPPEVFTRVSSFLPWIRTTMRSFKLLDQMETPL

[7] = target: Kallikrein-1 (Homo sapiens) (UniProt P06870); test: Inhibition of KLK1 (unknown origin) at 10 uM
Chain of Kallikrein-1 (Homo sapiens) (P06870 25-262 limits assumed): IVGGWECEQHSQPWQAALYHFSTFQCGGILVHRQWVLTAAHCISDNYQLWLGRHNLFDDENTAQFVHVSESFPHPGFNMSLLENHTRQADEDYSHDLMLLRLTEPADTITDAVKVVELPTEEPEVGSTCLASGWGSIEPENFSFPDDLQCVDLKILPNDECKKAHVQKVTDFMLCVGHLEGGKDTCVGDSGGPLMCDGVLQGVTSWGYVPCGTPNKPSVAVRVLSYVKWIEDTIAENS

[8] = target: Kallikrein-2 (Homo sapiens) (UniProt P20151); test: Inhibition of KLK2 (unknown origin) at 10 uM
Chain of Kallikrein-2 (Homo sapiens) (P20151 whole entry): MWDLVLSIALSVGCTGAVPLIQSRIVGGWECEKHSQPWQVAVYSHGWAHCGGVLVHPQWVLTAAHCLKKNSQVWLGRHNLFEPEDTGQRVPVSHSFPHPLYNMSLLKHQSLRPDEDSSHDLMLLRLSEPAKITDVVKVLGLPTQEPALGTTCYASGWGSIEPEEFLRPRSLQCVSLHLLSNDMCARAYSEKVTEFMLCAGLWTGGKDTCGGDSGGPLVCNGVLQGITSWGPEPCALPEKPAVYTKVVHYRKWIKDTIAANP

[9] = species on record: Homo sapiens; test: Inhibition of tryptase (unknown origin) at 10 uM
[10] = target: Trypsin (Homo sapiens) (UniProt P07477+P07478+P35030); test: Inhibition of trypsin (unknown origin) at 10 uM; type: protein assay
[11] = target: Urokinase-type plasminogen activator (Homo sapiens) (UniProt P00749); test: Inhibition of urokinase (unknown origin) at 10 uM
[12] = target: Cathepsin B (Homo sapiens) (UniProt P07858); test: Inhibition of cathepsin B (unknown origin) at 10 uM
[13] = target: T1, Pro-cathepsin H (Homo sapiens) (UniProt P09668); test: Inhibition of cathepsin H (unknown origin) at 10 uM
T1 sequence (whole entry): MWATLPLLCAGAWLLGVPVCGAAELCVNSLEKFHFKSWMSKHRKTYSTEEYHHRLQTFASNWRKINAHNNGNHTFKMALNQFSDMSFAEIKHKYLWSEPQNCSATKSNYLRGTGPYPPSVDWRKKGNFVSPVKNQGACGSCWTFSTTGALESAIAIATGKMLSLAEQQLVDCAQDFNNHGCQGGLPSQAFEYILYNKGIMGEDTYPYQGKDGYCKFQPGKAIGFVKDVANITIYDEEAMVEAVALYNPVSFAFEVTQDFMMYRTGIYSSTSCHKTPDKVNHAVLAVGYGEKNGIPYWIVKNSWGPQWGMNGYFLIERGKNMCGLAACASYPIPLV

[14] = target: T2, Cathepsin K (Homo sapiens) (UniProt P43235); test: Inhibition of cathepsin K (unknown origin) at 10 uM
T2 sequence (whole entry): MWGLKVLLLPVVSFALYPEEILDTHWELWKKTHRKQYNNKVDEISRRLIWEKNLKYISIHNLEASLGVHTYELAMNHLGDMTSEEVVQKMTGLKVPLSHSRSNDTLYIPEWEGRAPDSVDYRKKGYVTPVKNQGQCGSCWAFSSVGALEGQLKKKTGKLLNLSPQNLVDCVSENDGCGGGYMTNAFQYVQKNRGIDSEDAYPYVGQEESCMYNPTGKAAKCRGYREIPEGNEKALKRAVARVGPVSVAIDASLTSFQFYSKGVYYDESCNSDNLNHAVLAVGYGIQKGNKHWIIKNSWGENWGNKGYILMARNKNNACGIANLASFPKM

[15] = target: Procathepsin L (Homo sapiens) (UniProt P07711); test: Inhibition of cathepsin L (unknown origin) at 10 uM
Chain of Procathepsin L (Homo sapiens) (P07711 114-333 limits assumed): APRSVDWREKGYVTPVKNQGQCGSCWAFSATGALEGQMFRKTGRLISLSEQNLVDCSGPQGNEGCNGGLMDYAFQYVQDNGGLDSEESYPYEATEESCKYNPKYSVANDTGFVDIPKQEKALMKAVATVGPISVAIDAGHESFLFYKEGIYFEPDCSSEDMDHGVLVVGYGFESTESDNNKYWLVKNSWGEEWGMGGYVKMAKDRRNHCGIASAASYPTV

[16] = target: Cathepsin S (Homo sapiens) (UniProt P25774); test: Inhibition of cathepsin S (unknown origin) at 10 uM
Chain of Cathepsin S (Homo sapiens) (P25774 115-331 limits assumed): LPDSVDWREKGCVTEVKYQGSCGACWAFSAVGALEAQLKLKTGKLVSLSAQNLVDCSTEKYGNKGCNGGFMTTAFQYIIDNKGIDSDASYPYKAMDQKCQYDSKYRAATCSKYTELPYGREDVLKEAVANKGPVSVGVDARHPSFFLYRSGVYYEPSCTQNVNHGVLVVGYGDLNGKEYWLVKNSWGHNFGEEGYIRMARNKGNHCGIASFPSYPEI

[17] = target: Cathepsin L2 (Homo sapiens) (UniProt O60911); test: Inhibition of cathepsin V (unknown origin) at 10 uM
[18] = target: Caspase-1 (Homo sapiens) (UniProt P29466); test: Inhibition of Caspase 1 (unknown origin) at 10 uM
Chain of Caspase-1 (Homo sapiens) (P29466 120-297 limits assumed): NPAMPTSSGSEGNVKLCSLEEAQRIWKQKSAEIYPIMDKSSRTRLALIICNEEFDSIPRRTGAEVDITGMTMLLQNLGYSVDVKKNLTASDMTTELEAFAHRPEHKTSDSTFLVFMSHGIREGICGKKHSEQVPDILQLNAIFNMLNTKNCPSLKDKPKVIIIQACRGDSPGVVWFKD
Chain of Caspase-1 (Homo sapiens) (P29466 317-404 limits assumed): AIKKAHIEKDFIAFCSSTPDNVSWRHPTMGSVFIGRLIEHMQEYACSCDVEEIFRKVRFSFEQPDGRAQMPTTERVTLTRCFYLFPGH

[19] = target: Caspase-2 (Homo sapiens) (UniProt P42575); test: Inhibition of Caspase 2 (unknown origin) at 10 uM
Chain of Caspase-2 (Homo sapiens) (P42575 170-325 limits assumed): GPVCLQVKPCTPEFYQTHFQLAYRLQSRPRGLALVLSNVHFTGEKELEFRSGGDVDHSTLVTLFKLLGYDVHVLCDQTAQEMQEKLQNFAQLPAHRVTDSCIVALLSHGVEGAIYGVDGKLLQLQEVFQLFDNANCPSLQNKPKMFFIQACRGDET
Chain of Caspase-2 (Homo sapiens) (P42575 334-452 limits assumed): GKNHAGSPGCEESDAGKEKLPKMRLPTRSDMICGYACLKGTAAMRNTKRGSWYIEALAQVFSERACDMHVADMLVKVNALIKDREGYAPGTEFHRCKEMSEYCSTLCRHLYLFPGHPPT

[20] = target: Caspase-3 (Homo sapiens) (UniProt P42574); test: Inhibition of Caspase 3 (unknown origin) at 10 uM
Chain of Caspase-3 (Homo sapiens) (P42574 29-175 limits assumed): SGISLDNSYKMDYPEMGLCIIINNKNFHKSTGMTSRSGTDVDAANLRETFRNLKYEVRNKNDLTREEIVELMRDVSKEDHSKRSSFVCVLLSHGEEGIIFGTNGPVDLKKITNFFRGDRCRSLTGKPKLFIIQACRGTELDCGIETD
Chain of Caspase-3 (Homo sapiens) (P42574 176-277 limits assumed): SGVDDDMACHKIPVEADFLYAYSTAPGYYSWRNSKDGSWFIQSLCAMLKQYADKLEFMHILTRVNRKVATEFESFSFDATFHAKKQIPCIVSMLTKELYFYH

[21] = target: T3, Caspase-4 (Homo sapiens) (UniProt P49662); test: Inhibition of Caspase 4 (unknown origin) at 10 uM
T3 sequence (whole entry): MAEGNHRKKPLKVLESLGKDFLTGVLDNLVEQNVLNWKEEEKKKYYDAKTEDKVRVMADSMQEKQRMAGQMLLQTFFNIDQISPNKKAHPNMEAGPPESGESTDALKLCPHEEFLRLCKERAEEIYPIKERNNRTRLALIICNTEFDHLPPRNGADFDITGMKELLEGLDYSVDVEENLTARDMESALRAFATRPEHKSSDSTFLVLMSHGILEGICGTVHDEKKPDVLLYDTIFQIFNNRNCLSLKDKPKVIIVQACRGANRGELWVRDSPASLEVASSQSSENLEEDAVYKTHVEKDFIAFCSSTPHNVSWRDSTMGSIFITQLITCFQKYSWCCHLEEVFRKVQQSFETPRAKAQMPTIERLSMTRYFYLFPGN

[22] = target: Caspase-5 (Homo sapiens) (UniProt P51878); test: Inhibition of Caspase 5 (unknown origin) at 10 uM
[23] = target: T4, Caspase-6 (Homo sapiens) (UniProt P55212); test: Inhibition of Caspase 6 (unknown origin) at 10 uM
T4 sequence (whole entry): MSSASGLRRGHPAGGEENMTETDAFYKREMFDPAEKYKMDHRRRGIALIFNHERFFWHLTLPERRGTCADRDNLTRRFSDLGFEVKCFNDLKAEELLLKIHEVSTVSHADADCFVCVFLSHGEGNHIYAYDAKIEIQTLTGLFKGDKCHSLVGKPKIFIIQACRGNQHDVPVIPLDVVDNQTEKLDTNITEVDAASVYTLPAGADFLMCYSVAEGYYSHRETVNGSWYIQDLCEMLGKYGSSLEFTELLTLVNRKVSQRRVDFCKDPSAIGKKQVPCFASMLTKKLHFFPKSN

[24] = target: Caspase-7 (Homo sapiens) (UniProt P55210); test: Inhibition of Caspase 7 (unknown origin) at 10 uM
Chain of Caspase-7 (Homo sapiens) (P55210 24-198 limits assumed): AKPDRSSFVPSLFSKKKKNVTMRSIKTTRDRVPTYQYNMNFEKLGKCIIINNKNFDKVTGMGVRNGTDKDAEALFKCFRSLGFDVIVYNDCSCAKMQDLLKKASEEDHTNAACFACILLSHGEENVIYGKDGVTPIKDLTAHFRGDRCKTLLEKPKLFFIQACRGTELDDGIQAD
Chain of Caspase-7 (Homo sapiens) (P55210 207-303 limits assumed): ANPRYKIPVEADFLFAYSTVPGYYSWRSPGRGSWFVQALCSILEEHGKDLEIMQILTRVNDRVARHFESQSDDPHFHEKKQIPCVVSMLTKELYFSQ

[25] = target: Caspase-8 (Homo sapiens) (UniProt Q14790); test: Inhibition of Caspase 8 (unknown origin) at 10 uM
Chain of Caspase-8 (Homo sapiens) (Q14790 217-374 limits assumed): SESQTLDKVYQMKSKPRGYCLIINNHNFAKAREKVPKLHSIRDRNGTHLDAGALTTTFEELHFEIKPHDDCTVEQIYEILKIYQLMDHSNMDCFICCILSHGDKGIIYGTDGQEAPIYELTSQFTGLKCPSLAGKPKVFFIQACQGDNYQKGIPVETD
Chain of Caspase-8 (Homo sapiens) (Q14790 385-479 limits assumed): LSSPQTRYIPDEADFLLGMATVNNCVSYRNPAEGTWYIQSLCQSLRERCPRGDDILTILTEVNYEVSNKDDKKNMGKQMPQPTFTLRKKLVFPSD

[26] = target: Caspase-9 (Homo sapiens) (UniProt P55211); test: Inhibition of Caspase 9 (unknown origin) at 10 uM
Chain of Caspase-9 (Homo sapiens) (P55211 1-315 limits assumed): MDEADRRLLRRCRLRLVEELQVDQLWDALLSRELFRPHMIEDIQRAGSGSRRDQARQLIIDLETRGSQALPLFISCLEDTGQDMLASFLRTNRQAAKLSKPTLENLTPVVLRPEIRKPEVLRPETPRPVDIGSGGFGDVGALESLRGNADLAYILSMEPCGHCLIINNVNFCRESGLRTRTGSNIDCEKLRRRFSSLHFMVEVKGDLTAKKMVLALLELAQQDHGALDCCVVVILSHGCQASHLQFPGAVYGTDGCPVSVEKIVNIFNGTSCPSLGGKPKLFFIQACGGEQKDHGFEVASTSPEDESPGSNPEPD
Chain of Caspase-9 (Homo sapiens) (P55211 331-416 limits assumed): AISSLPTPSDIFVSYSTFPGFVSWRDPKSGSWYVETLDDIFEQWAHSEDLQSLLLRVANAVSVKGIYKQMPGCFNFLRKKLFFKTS

[27] = target: Caspase-10 (Homo sapiens) (UniProt Q92851); test: Inhibition of Caspase 10 (unknown origin) at 10 uM
Chain of Caspase-10 (Homo sapiens) (Q92851 220-415 limits assumed): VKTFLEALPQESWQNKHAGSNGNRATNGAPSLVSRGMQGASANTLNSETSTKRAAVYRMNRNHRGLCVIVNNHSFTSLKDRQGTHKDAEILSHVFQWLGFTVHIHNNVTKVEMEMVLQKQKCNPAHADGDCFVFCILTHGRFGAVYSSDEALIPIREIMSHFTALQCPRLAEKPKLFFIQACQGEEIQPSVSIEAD
Chain of Caspase-10 (Homo sapiens) (Q92851 416-521 limits assumed): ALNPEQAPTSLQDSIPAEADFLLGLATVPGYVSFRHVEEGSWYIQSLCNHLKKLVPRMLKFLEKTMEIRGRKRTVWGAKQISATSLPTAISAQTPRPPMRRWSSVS

[28] = species on record: Homo sapiens; test: Inhibition of Calpain (unknown origin) at 10 uM
[29] = target: T5, Legumain (Homo sapiens) (UniProt Q99538); test: Inhibition of Legumain (unknown origin) at 10 uM
T5 sequence (whole entry): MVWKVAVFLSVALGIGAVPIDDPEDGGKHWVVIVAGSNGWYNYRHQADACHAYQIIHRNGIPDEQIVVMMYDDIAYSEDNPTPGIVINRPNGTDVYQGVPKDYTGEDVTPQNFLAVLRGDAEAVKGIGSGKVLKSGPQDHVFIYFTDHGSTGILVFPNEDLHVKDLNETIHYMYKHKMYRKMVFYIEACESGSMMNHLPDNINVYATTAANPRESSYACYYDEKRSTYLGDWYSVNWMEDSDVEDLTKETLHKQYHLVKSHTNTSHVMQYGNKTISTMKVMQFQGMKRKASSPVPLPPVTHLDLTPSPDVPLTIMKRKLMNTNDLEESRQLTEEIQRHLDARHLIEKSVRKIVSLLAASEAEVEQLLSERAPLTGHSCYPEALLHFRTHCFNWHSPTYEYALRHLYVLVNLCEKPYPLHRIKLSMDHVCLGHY

[30] = Metabolic stability in human microsome assessed as half life; type: ADME; parameters: dose or concentration left out as unconfirmed; settings: microsomes, read-out: Stabilty
[31] = Aqueous solubility of the compound at pH 7; type: physicochemical; settings: aqueous medium
[32] = Metabolic stability in mouse microsome assessed as half life; type: ADME; parameters: dose or concentration left out as unconfirmed; settings: microsomes, read-out: Stabilty
[33] = AUC (0 to infinity) in mouse at 1 mg/kg, iv or 5 mg/kg, po; type: ADME, organism-based; parameters: dose 5 mg/kg; settings: in vivo
[34] = Plasma protein binding in mouse assessed as unbound fraction; type: ADME, cell-free; parameters: dose or concentration left out as unconfirmed; settings: read-out: PPB
[35] = Clearance in mouse at 1 mg/kg, iv; type: ADME, organism-based; settings: in vivo
[36] = Half life in mouse at 1 mg/kg, iv or 5 mg/kg, po; type: ADME, organism-based; settings: in vivo
[37] = Oral bioavailability in mouse at 5 mg/kg; type: ADME, organism-based; settings: in vivo
[38] = Plasma protein binding in human assessed as unbound fraction; type: ADME, cell-free; settings: read-out: PPB

Chain of Cathepsin D (Homo sapiens) (P07339 65-162 limits assumed): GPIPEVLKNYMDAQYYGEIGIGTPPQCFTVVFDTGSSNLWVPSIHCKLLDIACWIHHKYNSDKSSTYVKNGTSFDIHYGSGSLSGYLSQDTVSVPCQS
Chain of Cathepsin D (Homo sapiens) (P07339 169-412 limits assumed): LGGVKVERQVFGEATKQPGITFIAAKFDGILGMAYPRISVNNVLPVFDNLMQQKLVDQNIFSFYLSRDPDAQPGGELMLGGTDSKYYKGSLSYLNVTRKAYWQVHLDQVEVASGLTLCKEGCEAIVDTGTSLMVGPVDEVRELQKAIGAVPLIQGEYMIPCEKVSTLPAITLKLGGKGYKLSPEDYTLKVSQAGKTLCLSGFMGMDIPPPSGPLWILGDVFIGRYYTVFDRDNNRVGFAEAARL

| EC50 [1] [µM] | inhibition [4] [%] | inhibition [7] [%] | inhibition [8] [%] | inhibition [9] [%] | inhibition [10] [%] | inhibition [11] [%] | inhibition [12] [%] | inhibition [13] [%] | inhibition [14] [%] | inhibition [15] [%] | inhibition [16] [%] | inhibition [20] [%] | inhibition [21] [%] | inhibition [23] [%] | inhibition [25] [%] | inhibition [26] [%] | inhibition [27] [%] | inhibition [28] [%] | inhibition [29] [%] | Structure (SMILES) | also measured |
| --- | --- | --- | --- | --- | --- | --- | --- | --- | --- | --- | --- | --- | --- | --- | --- | --- | --- | --- | --- | --- | --- |
| 0.12 | 98.7 | 99.7 | 94.8 | 99.4 | 100 | 108 | 99.9 | 98.8 | 102 | 99.7 | 100 | 99.9 | 110 | 88.1 | 99.7 | 89.2 | 89.9 | 98.8 | 88.4 | CO[C@@H](C)c1c(NC(=O)Nc2cnc(-n3nccn3)c(Cl)c2)cnc2cc(Cl)nn12 | inhibition [2]: 99.8%; inhibition [3]: 100%; inhibition [5]: 99.8%; inhibition [6]: 92.5%; inhibition [17]: 99%; inhibition [18]: 99.7%; inhibition [19]: 87.3%; inhibition [22]: 92.6%; inhibition [24]: 98.1% |
| 0.36 | 18.8 | -9 | -2.6 | 2 | 1.9 | 22 | 1 | 14.1 | 11.8 | 21.9 | 15.7 | 1 | 9 | -3.9 | 10.8 | 17.5 | -5.2 | -9.4 | -4.2 | CCOC(C)c1c(NC(=O)Nc2cnc(-n3nccn3)c(Cl)c2)cnc2sc(C)nc12 (stereo not drawn) | half-life [30]: 0.717 h; solubility [31]: < 4 µM; half-life [32]: 2.12 h; AUC(0-inf) [33]: 10.1 µg·h/mL; fraction unbound [34]: 0.022; clearance [35]: 0.096 L/h/kg; half-life [36]: 3.2 h; bioavailability [37]: 19%; fraction unbound [38]: 0.025 |
